Data reported in patent US9273003B2, “Methods of treating lymphoma and rheumatoid arthritis with cyclopentyl (2S)-cyclohexyl[({6-[3-(hydroxyamino)-3-oxopropyl]pyridin-3-yl}methyl)amino]acetate” (GlaxoSmithKline Intellectual Property Development Limited, priority 2006, dated 2016).

Test system: intracellular carboxylesterases (U937 cell extract)
Assay: Broken cell carboxylesterase assay, U937 cell extract
Format: in vitro ADME
Details: ester 2.5 μM, 37° C.
Procedure: Any given compound of the present invention wherein R1 is an ester group may be tested to determine whether it meets the requirement that it be hydrolysed by intracellular esterases, by testing in the following assay.
U937 or Hut78 tumour cells (˜10^9) were washed in 4 volumes of Dulbeccos PBS (˜1 liter) and pelleted at 525 g for 10 min at 4° C. This was repeated twice and the final cell pellet was resuspended in 35 mL of cold homogenising buffer (Trizma 10 mM, NaCl 130 mM, CaCl2 0.5 mM pH 7.0 at 25° C.). Homogenates were prepared by nitrogen cavitation (700 psi for 50 min at 4° C.). The homogenate was kept on ice and supplemented with a cocktail of inhibitors at final concentrations of: • Leupeptin 1 μM • Aprotinin 0.1 μM • E64 8 μM • Pepstatin 1.5 μM • Bestatin 162 μM • Chymostatin 33 μM After clarification of the cell homogenate by centrifugation at 525 g for 10 min, the resulting supernatant was used as a source of esterase activity and was stored at −80° C. until required. Measurement of Ester Cleavage
Hydrolysis of esters to the corresponding carboxylic acids can be measured using the cell extract, prepared as above. To this effect cell extract (˜30 μg/total assay volume of 0.5 ml) was incubated at 37° C. in a Tris-HCl 25 mM, 125 mM NaCl buffer, pH 7.5 at 25° C. At zero time the ester (substrate) was then added at a final concentration of 2.5 μM and the samples were incubated at 37° C. for the appropriate time (usually 0 or 80 min). Reactions were stopped by the addition of 3× volumes of acetonitrile. For zero time samples the acetonitrile was added prior to the ester compound. After centrifugation at 12000 g for 5 min, samples were analysed for the ester and its corresponding carboxylic acid at room temperature by LCMS (Sciex API 3000, HP1100 binary pump, CTC PAL). Chromatography was based on an AceCN (75×2.1 mm) column and a mobile phase of 5-95% acetonitrile in water/0.1% formic acid.
Rates of hydrolysis are expressed in pg/mL/min.

| SMILES | Hydrolysis Rate Range U937 Cells |
| --- | --- |
| COc1cc2c(Oc3ccc(NC(=O)c4ccccc4)cc3)ccnc2cc1C | 100 to 1000 pg/mL/min |
| Cc1ccc2cc(C(=O)NO)sc2c1 [drawing 84] | 1000 to 50000 pg/mL/min |
| Cc1ccc2cc(C(=O)NO)sc2c1 [drawing 87] | >50000 pg/mL/min |
| Cc1ccc(NCc2cnc3nc(N)nc(N)c3c2C)cc1 [drawing 90] | >50000 pg/mL/min |
| Cc1ccc(NCc2cnc3nc(N)nc(N)c3c2C)cc1 [drawing 92] | 1000 to 50000 pg/mL/min |
| Cc1ccc(NCc2cnc3nc(N)nc(N)c3c2C)cc1 [drawing 94] | 1000 to 50000 pg/mL/min |
| Cc1ccc(NCc2cnc3nc(N)nc(N)c3c2C)cc1 [drawing 96] | >50000 pg/mL/min |
| Cc1ccc2cc(C(=O)NO)sc2c1 [drawing 98] | >50000 pg/mL/min |
| Cc1ccc2cc(C(=O)NO)sc2c1 [drawing 101] | >50000 pg/mL/min |
